Data: US4218443A, “Polyether ionophores as antiobesity and hypotriglyceridemic agents” (Hoffmann-La Roche Inc., priority 1979, dated 1980)

How the values were obtained:
[1] = test system: meal-fed Charles River rats; assay: Food consumption and serum parameters in meal-fed rats (in vivo fatty acid synthesis experiments); parameters: species or system Charles River rat; conditions: sodium salt, mean ± SE
Procedure: In the following examples, female rats (Charles River CD strain, 180-200 g) were housed individually in wire bottom cages in a temperature (22°) and light (12 hr light and 12 hr dark) regulated room. They had free access to Purina Rodent Chow and water.
Faster enzymatic procedure for serum triglycerides, Clinical Chemistry, 21: 1983-1985], cholesterol, [C. C. Allain, L. Poon, S. G. Chan, W. Richmond and P. Fu (1974). Enzymatic determination of total serum cholesterol, Clinical Chemistry, 20: 470-475] and glucose, [R. Konig, H. Dauwalder and R. Richterich (1971). Vergleichende Bestimmunogen der Uringlucosekonzentration mit der Polarimetrie und einer enzymatischen Methode (Hexokinase/Glucose-6-Phosphat-Dehydrogenase), Schweiz. Med. Wschr., 101: 860-866] by enzymatic procedures.

[2] = test system: intestinal absorption of triglycerides (corn oil); assay: In vivo absorption of triglycerides (corn oil absorption); conditions: Experiment 2, sodium
[3] = test system: female Charles River rats; assay: Chronic 31 day dietary admix experiment; type: in vivo, Charles River rat; conditions: 31 days; for Body Weight Gain / Body Weight final / Fat Absorption / Food Consumption / Food Efficiency / Serum Cholesterol / Serum Free Fatty Acids / Serum Glucose / Serum IRI (immunoreactive insulin) / Serum Triglycerides: sodium salt, mean ± SE
From the text: (§1) Faster enzymatic procedure for serum triglycerides, Clinical Chemistry, 21: 1983-1985], cholesterol, [C. C. Allain, L. Poon, S. G. Chan, W. Richmond and P. Fu (1974). Enzymatic determination of total serum cholesterol, Clinical Chemistry, 20: 470-475] and glucose, [R. Konig, H. Dauwalder and R. Richterich (1971). Vergleichende Bestimmungen der Uringlucosekonzentration mit der Polarimetrie und einer enzymatischen Methode (Hexokinase/Glucose-6-Phosphat-Dehydrogenase), Schweiz. Med. Wschr., 101: 860-866], by enzymatic procedures and free fatty acids, [C. Dalton and C. Kowalski (1967). Automated colorimetric determination of free fatty acids in biologic fluids, Clinical Chemistry, 13: 744-751], by a Colorimetric procedure. Serum immunoreactive insulins were determined by radioimmunoassay, [G. F. Bryce, P. R. Johnson, A. C. Sullivan, J. S. Stern (1977). Insulin and glucagon: Plasma levels and pancreatic release in the gentically obese Zucker rat, Hormone and Metabolic Research, 9: 366-370].
(§2) FIG. 2 sets forth body weight gain values of rats matched for initial body weight and pair fed 10% corn oil diet without dinitrodescarboxylasalocid and three groups of pair fed rats receiving 60, 120 and 240 mg/kg of dinitrodescarboxylasalocid as dietary admixes for 31 days respectively. […] Tables 12 and 13 describe the effects of dinitrodescarboxylasalocid (150 mg/kg b.i.d. by oral intubation) in genetically obese and lean Zucker rats for 21 days.

[4] = test system: obese and lean female Zucker rats; assay: Chronic 21 day experiment in obese and lean Zucker rats; type: in vivo, Zucker rat; conditions: 150 mg/kg b.i.d. oral, 21 days, sodium salt, mean ± SE
From the text: Ad libitum fed lean and genetically obese Zucker rats (140 days old) were used in one chronic study.
as §1, §2

CC[C@@H](C(=O)[C@@H](C)[C@@H](O)[C@H](C)CCc1c([N+](=O)[O-])cc(C)c(O)c1[N+](=O)[O-])[C@H]1O[C@](CC)([C@H]2CC[C@](O)(CC)[C@H](C)O2)C[C@@H]1C [Dinitrodescarboxylasalocid]
Food Consumption ([1]; 60 mg/kg i.p.): 15.7 ± 0.4 g
Food Consumption ([1]; Experiment 1, 240 mg/kg p.o.): 11.0 ± 0.8 g
Serum Cholesterol ([1]; Experiment 1, 240 mg/kg p.o.): 85 ± 7 mg/100 ml
Serum Glucose ([1]; Experiment 1, 240 mg/kg p.o.): 194 ± 9 mg/100 ml
Serum Triglycerides ([1]; Experiment 1, 240 mg/kg p.o.): 42 ± 5 mg/100 ml
Food Consumption ([1]; Experiment 2, 60 mg/kg p.o.): 8.8 ± 1.0 g
Serum Cholesterol ([1]; Experiment 2, 60 mg/kg p.o.): 84 ± 3 mg/100 ml
Serum Glucose ([1]; Experiment 2, 60 mg/kg p.o.): 165 ± 6 mg/100 ml
Serum Triglycerides ([1]; Experiment 2, 60 mg/kg p.o.): 40 ± 4 mg/100 ml
Food Consumption ([1]; Experiment 2, 120 mg/kg p.o.): 10.7 ± 1.0 g
Serum Cholesterol ([1]; Experiment 2, 120 mg/kg p.o.): 82 ± 6 mg/100 ml
Serum Glucose ([1]; Experiment 2, 120 mg/kg p.o.): 168 ± 7 mg/100 ml
Serum Triglycerides ([1]; Experiment 2, 120 mg/kg p.o.): 31 ± 2 mg/100 ml
Food Consumption ([1]; Experiment 2, 240 mg/kg p.o.): 9.4 ± 1.1 g
Serum Cholesterol ([1]; Experiment 2, 240 mg/kg p.o.): 76 ± 7 mg/100 ml
Serum Glucose ([1]; Experiment 2, 240 mg/kg p.o.): 183 mg/100 ml
Serum Triglycerides ([1]; Experiment 2, 240 mg/kg p.o.): 31 ± 5 mg/100 ml
Area under curve (corn oil absorption) ([2]; 56 mg/kg p.o.): 1213
Area under curve, % of control ([2]; 56 mg/kg p.o.): 86 % of control
Area under curve (corn oil absorption) ([2]; 120 mg/kg p.o.): 1072
Area under curve, % of control ([2]; 120 mg/kg p.o.): 76 % of control
Area under curve (corn oil absorption) ([2]; 240 mg/kg p.o.): 564
Area under curve, % of control ([2]; 240 mg/kg p.o.): 40 % of control
Body Weight Gain ([3]; 60 mg/kg dietary admix): 64 ± 6 g
Body Weight final ([3]; 60 mg/kg dietary admix): 255 ± 8 g
Fat Absorption ([3]; 60 mg/kg dietary admix): 95.6 ± 0.6%
Food Consumption ([3]; 60 mg/kg dietary admix): 17.4 ± 0.6 g/day
Food Efficiency ([3]; 60 mg/kg dietary admix): 0.115 ± 0.010 g gained/g consumed
Serum Cholesterol ([3]; 60 mg/kg): 106 ± 6 mg/100 ml
Serum Free Fatty Acids ([3]; 60 mg/kg): 469 ± 46 μeq/l
Serum Glucose ([3]; 60 mg/kg): 173 ± 5 mg/100 ml
Serum IRI (immunoreactive insulin) ([3]; 60 mg/kg): 1.8 ± 0.2 ng/mL
Serum Triglycerides ([3]; 60 mg/kg): 73 ± 3 mg/100 ml
Body Weight Gain ([3]; 120 mg/kg dietary admix): 66 ± 8 g
Body Weight final ([3]; 120 mg/kg dietary admix): 256 ± 10 g
Fat Absorption ([3]; 120 mg/kg dietary admix): 95.8 ± 0.6%
Food Consumption ([3]; 120 mg/kg dietary admix): 19.0 ± 0.5 g/day
Food Efficiency ([3]; 120 mg/kg dietary admix): 0.109 ± 0.014 g gained/g consumed
Serum Cholesterol ([3]; 120 mg/kg): 88 ± 6 mg/100 ml
Serum Free Fatty Acids ([3]; 120 mg/kg): 425 ± 45 μeq/l
Serum Glucose ([3]; 120 mg/kg): 164 ± 5 mg/100 ml
Serum IRI (immunoreactive insulin) ([3]; 120 mg/kg): 2.0 ± 0.2 ng/mL
Serum Triglycerides ([3]; 120 mg/kg): 64 ± 5 mg/100 ml
Body Weight Gain ([3]; 240 mg/kg dietary admix): 51 ± 3 g
Body Weight final ([3]; 240 mg/kg dietary admix): 246 ± 4 g
Fat Absorption ([3]; 240 mg/kg dietary admix): 88.1 ± 1.7%
Food Consumption ([3]; 240 mg/kg dietary admix): 17.6 ± 0.5 g/day
Food Efficiency ([3]; 240 mg/kg dietary admix): 0.083 ± 0.011 g gained/g consumed
Serum Cholesterol ([3]; 240 mg/kg): 155 ± 9 mg/100 ml
Serum Free Fatty Acids ([3]; 240 mg/kg): 423 ± 61 μeq/l
Serum Glucose ([3]; 240 mg/kg): 155 ± 8 mg/100 ml
Serum IRI (immunoreactive insulin) ([3]; 240 mg/kg): 1.7 ± 0.2 ng/mL
Serum Triglycerides ([3]; 240 mg/kg): 51 ± 4 mg/100 ml
Body weight gain compared to controls and the respective pair-fed groups (FIG. 2) ([3]; 60, 120 and 240 mg/kg dietary admix): reduced significantly only at the 240 mg/kg dose
Body Weight Gain ([4]; Fa/- (lean)): 20 ± 4 g
Fat Absorption ([4]; Fa/- (lean)): 90.1 ± 0.9%
Fecal Weight ([4]; Fa/- (lean)): 1.6 ± 0.1 g
Final Body Weight ([4]; Fa/- (lean)): 202 ± 5 g
Food Consumption ([4]; Fa/- (lean)): 16.8 ± 0.8 g/day
Serum Cholesterol ([4]; Fa/- (lean)): 84 ± 7 mg/100 ml
Serum Free Fatty Acids ([4]; Fa/- (lean)): 519 ± 58 μeq/l
Serum Glucose ([4]; Fa/- (lean)): 154 ± 6 mg/100 ml
Serum IRI (immunoreactive insulin) ([4]; Fa/- (lean)): 0.5 ± 0.1 ng/mL
Serum Triglycerides ([4]; Fa/- (lean)): 71 ± 5 mg/100 ml
Body Weight Gain ([4]; fa/fa (obese)): 61 ± 6 g
Fat Absorption ([4]; fa/fa (obese)): 93.0 ± 1.1%
Fecal Weight ([4]; fa/fa (obese)): 2.1 ± 0.1 g
Final Body Weight ([4]; fa/fa (obese)): 352 ± 12 g
Food Consumption ([4]; fa/fa (obese)): 19.5 ± 0.9 g/day
Serum Cholesterol ([4]; fa/fa (obese)): 168 ± 6 mg/100 ml
Serum Free Fatty Acids ([4]; fa/fa (obese)): 668 ± 59 μeq/l
Serum Glucose ([4]; fa/fa (obese)): 201 ± 12 mg/100 ml
Serum IRI (immunoreactive insulin) ([4]; fa/fa (obese)): 8.3 ± 0.6 ng/mL
Serum Triglycerides ([4]; fa/fa (obese)): 178 ± 19 mg/100 ml
